# Measured values as given in US6191150A, “Formamide compounds as therapeutic agents” (Glaxo Wellcome Inc., priority 1998, dated 2001).
# Read-outs that look alike come from different tables or passages of the source.
# Columns and labels:
# [1] = test system: release of soluble tumor necrosis factor α from stimulated monocytes; experiment: Cell-based TNFα release inhibition, LPS/PMA-stimulated MonoMac 6 cells, ELISA; details: Homo sapiens, MONO-MAC-6, 37° C., 2 h
# Procedure: Compounds (10 mM) are serially diluted 1:3 in DMSO. Compound dilutions (20 μL) are added to a sterile round bottom 96 well plate (20 μL:200 μL total volume=1:10 for final concentrations of […] for test compounds). MonoMac 6 cell suspension (130 μL, 1.5×10^6 cells/mL) is then added to each well resulting in 2×10^5 cells/well. LPS/PMA (50 μL) solution is then added to each well (final concentrations of 10 ng/mL and 30 ng/mL respectively). The plate is incubated at 37° C. for 2 h then spun at 1,500 rpm for 3 min to pellet cells. The supernatant (120 μL/well) is removed to a new round bottom 96 well plate and diluted 1:10 in PBS. Then, 20 μL of the supernatant is transferred to a Cistron […] ELISA plate and processed according to the manufacturer's instructions to quantitate levels of TNFα. Percent inhibition of TNFα release is calculated at each inhibitor concentration and the data are plotted using standard curve fitting programs. IC50 values are determined from these curves.
# [2] = target: stromelysin-1 (Homo sapiens, UniProt P08254); experiment: Matrix metalloprotease inhibition, fluorogenic substrate: stromelysin-1; format: biochemical
# Procedure: (§1) Assays are conducted in a total volume of 0.180 mL assay buffer (200 mM NaCl, 50 mM Tris, 5 mM CaCl2, 10 μM ZnSO4, 0.005% Brij 35, pH 7.6) in each well of a black 96-well microtiter plate. 19 kD collagenase-1, 20 kD collagenase-3, stromelysin-1,and 50 kD gelatinase B concentrations are adjusted to 500 pM, 30 pM, 5 nM, and 100 pM, respectively. A dose response is generated using an eleven-point, 3-fold serial dilution with initial starting test compound concentrations of 100, 10, or 1 μM. Inhibitor and enzyme reactions are incubated for 30 minutes at ambient temperature and then initiated with 10 μM fluorogenic substrate (above). The product formation is measured at Excitation343 /Emission450 nm after 45-180 minutes using a Fluostar SLT fluorescence analyzer. Percent inhibition is calculated at each inhibitor concentration and the data are plotted using standard curve fitting programs. IC50 values are determined from these curves. Assays are run at low substrate concentration ([S]<<Km) such that the calculated IC50 values are equivalent to Ki within experimental error.
# [3] = target: T1, 19 kD truncated collagenase-1 (MMP-1) (Homo sapiens, UniProt P03956); experiment: Matrix metalloprotease inhibition, fluorogenic substrate: collagenase-1; format: biochemical
# T1 construct: 19 kD truncated collagenase-1 (MMP-1)
# T1 sequence (P03956 101-269 limits assumed): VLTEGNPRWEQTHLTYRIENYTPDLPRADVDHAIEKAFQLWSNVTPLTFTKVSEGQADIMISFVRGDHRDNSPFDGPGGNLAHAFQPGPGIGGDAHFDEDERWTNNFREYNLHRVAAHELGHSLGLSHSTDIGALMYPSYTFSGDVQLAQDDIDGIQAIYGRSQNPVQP
# Procedure: as §1
# [4] = test system: serum TNFα; experiment: Murine LPS-stimulated serum TNF inhibition; format: in vivo, mouse (C3/hen female mice); details: s.c., 40 mg/kg, 10 min prior to 200 μg/kg i.p. LPS; 90 min after LPS
# Procedure: USA) for a final DMSO concentration of 1%. The dosing solution is sonicated briefly and 0.2 mL is injected subcutaneously 10 min prior to LPS injection, b) for per oral (p.o.) administration, test compounds are formulated in 0.2 mL of PBS and 0.1% Tween 80 and given orally via gavage 10 min prior to LPS administration.
# Blood is immediately taken from the caudal vena cava and plasma prepared and frozen at -80° C. Plasma concentrations of TNF are measured by ELISA (Genzyme Co., Cambridge Mass.).
# [5] = target: T2, TNFα Converting Enzyme (Homo sapiens, UniProt P78536); experiment: TNFα converting enzyme inhibition, MonoMac 6 membrane preparation, radiolabeled substrate SPA; format: biochemical; as to TNFα Converting Enzyme Ki: 200 nM substrate
# T2 construct: Membrane preparation from MonoMac 6 cells; endogenous in cells; host or cells: MonoMac 6 cells, subfractionated membrane preparation
# Procedure: The reaction is quenched by addition of streptavidin SPA beads (Amersham RPNQ0006), with excess binding capacity relative to substrate, suspended in 250 mM EDTA, pH 8.0. Binding is complete within 15 minutes and plates are counted in a Wallac 1450 Microbeta liquid scintillation counter. Percent inhibition is calculated at each inhibitor concentration and the data are plotted using standard curve fitting programs. IC50 values are determined from these curves. Assays are run at low substrate concentration ([S]<<Km) such that the calculated IC50 values are equivalent to Ki within experimental error.
# [6] = read-out: TNFα Converting Enzyme Ki
# Sequence of stromelysin-1 (P08254 100-477): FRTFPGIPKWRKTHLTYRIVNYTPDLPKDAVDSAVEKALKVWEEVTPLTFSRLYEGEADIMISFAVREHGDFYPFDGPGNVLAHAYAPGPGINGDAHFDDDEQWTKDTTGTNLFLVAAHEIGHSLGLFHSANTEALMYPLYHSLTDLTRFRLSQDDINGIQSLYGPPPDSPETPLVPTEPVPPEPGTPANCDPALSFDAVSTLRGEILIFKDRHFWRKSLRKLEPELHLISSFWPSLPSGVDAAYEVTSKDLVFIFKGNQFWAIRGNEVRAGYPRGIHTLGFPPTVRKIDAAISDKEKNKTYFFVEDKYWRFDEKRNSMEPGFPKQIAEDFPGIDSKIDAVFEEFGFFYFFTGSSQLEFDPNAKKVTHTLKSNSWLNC
# T2 sequence (P78536 215-824): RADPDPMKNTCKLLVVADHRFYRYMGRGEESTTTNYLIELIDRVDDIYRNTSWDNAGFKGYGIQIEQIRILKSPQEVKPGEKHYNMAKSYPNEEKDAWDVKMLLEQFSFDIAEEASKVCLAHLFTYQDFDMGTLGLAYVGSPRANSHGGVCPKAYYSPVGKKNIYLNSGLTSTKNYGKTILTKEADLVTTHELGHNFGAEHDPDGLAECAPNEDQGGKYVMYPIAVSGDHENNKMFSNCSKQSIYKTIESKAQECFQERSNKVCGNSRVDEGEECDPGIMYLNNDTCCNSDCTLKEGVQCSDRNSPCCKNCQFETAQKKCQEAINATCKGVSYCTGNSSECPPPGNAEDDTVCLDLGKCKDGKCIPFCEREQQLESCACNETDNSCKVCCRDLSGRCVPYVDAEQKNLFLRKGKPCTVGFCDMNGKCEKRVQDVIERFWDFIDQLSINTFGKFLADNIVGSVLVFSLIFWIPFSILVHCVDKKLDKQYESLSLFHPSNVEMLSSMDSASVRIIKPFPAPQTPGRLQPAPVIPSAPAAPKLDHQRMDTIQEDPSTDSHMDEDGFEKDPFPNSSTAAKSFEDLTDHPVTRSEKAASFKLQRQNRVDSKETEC
SMILES,IC50 [1] [nM],Ki [2] [nM],Ki [3] [nM],Percentage Inhibition of Serum TNFα [4],"Ki [5, 6] [nM]",Ki [5] [nM]
"CCC[C@@H]([C@@H](CC(C)C)C(=O)N[C@@H](CCCNC(N)=N[N+](=O)[O-])C(=O)Nc1nccs1)N(O)C=O [Example 1, (2R,3S)-3-(Formyl-hydroxyamino)-2-(2-methyl-1-propyl)hexanoic Acid [(1S)-4-(nitroimino-amino)methylamino-1-(1,3-thiazol-2-ylcarbamoyl)-1-butyl]amide]",< 50,< 50,< 50,+++ (>75%),–,–
"CCC[C@@H]([C@@H](CC1CCCCC1)C(=O)N[C@@H](CCCNC(N)=N[N+](=O)[O-])C(=O)Nc1nccs1)N(O)C=O [Example 2, (2R,3S)-3-(Formyl-hydroxyamino)-2-(cyclohexylmethyl)hexanoic Acid [(1S)-4-(nitroimino-amino)methylamino-1-(1,3-thiazol-2-ylcarbamoyl)-1-butyl]amide]",< 50,50 to 250,50 to 250,++ (50%-75%),< 50,–
"CC(C)C[C@@H](C(=O)N[C@H](C(=O)Nc1nccs1)[C@H](C)CCNC(N)=N[N+](=O)[O-])[C@H](C)N(O)C=O [Example 3, (2R,3S)-3-(Formyl-hydroxyamino)-2-(2-methyl-1-propyl)butanoic Acid [(1S,2R)-2-Methyl-4-(nitroimino-amino)methylamino-1-(1,3-thiazol-2-ylcarbamoyl)-1-butyl]amide]",< 50,50 to 250,< 50,–,< 50,–
"CCC[C@@H]([C@@H](CC(C)C)C(=O)N[C@H](C(=O)Nc1nccs1)[C@H](C)CCNC(N)=N[N+](=O)[O-])N(O)C=O [Example 4, (2R,3S)-3-(Formyl-hydroxyamino)-2-(2-methyl-1-propyl)hexanoic Acid [(1S,2R)-2-Methyl-4-(nitroimino-amino)methylamino-1-(1,3-thiazol-2-ylcarbamoyl)-1-butyl]amide]",< 50,50 to 250,< 50,–,< 50,–
CC(C)C[C@@H](C(=O)N[C@@H](CCCNC(N)=N[N+](=O)[O-])C(=O)Nc1nccs1)[C@H](Cc1ccccc1)N(O)C=O [Example 5],250 to 500,< 50,< 50,–,–,–
"NC(=N[N+](=O)[O-])NCCC[C@H](NC(=O)[C@H](CC1CCCCC1)[C@H](CCC(F)(F)F)N(O)C=O)C(=O)Nc1nccs1 [Example 6, (2R,3S)-3-(Formyl-hydroxyamino)-2-(cyclohexylmethyl)-6,6,6-trifluorohexanoic Acid [(1S)-4-(nitroimino-amino)methylamino-1-(1,3-thiazol-2-ylcarbamoyl)-1-butyl]amide]",50 to 250,50 to 250,50 to 250,++ (50%-75%),< 50,–
"CCC[C@@H]([C@@H](CC1CCC(C)CC1)C(=O)N[C@@H](CCCNC(N)=N[N+](=O)[O-])C(=O)Nc1nccs1)N(O)C=O (stereo partly drawn) [Example 7, (2R,3S)-3-(Formyl-hydroxyamino)-2-(4-methylcyclohexyl-methyl)hexanoic Acid [(1S)-4-(nitroimino-amino)methyl-amino-1-(1,3-thiazol-2-ylcarbamoyl)-1-butyl]amide]",50 to 250,50 to 250,50 to 250,++ (50%-75%),< 50,–
"CC1CCC(C[C@@H](C(=O)N[C@@H](CCCNC(N)=N[N+](=O)[O-])C(=O)Nc2nccs2)[C@H](C(C)C)N(O)C=O)CC1 (stereo partly drawn) [Example 8, (2R,3S)-3-(Formyl-hydroxyamino)-2-(4-methylcyclohexyl-methyl)-4-methylpentanoic Acid [(1S)-4-(nitroimino-amino)methylamino-1-(1,3-thiazol-2-ylcarbamoyl)-1-butyl]amide]",< 50,50 to 250,50 to 250,++ (50%-75%),–,–
"CCC[C@@H]([C@@H](Cc1ccc(C)s1)C(=O)N[C@@H](CCCNC(N)=N[N+](=O)[O-])C(=O)Nc1nccs1)N(O)C=O [Example 9, (2R,3S)-3-(Formyl-hydroxyamino)-2-(5-methyl-2-thio-phenemethyl)hexanoic Acid [(1S)-4-((nitroimino-amino)methylamino)-1-(1,3-thiazol-2-ylcarbamoyl)-1-butyl]amide]",50 to 250,50 to 250,> 1000,–,–,–
"NC(=N[N+](=O)[O-])NCCC[C@H](NC(=O)[C@H](CC1CCCCC1)[C@H](C1CC1)N(O)C=O)C(=O)Nc1nccs1 [Example 10, (2R,3S)-3-(Formyl-hydroxyamino)-2-(cyclohexylmethyl)-3-cyclopropylpropanoic Acid [(1S)-4-(nitroimino-amino)methylamino-1-(1,3-thiazol-2-ylcarbamoyl)-1-butyl]amide]",250 to 500,> 1000,50 to 250,++ (50%-75%),–,< 50
